≈ marks a conversion by molar mass, not a printed value. Entries after “also recorded” stand apart in the source; their conditions may differ. Like-named read-outs stand apart in the source and are kept apart here.
How the values were obtained:
purified EGFR = purified EGFR (Homo sapiens (Human), UniProt P00533); experiment: kinase assay using purified EGFR; type: biochemical
[1] = Oral toxicity in normal mice; type: in vivo; settings: 25 to 510 mg/kg every day for two weeks, CMC/TWEEN 80
Stability in SIF = type: physicochemical
CYP 3A4-M = CYP 3A4-M (Homo sapiens (Human), UniProt P08684); experiment: CYP inhibition in human liver microsomes, 3A4-M; type: in vitro ADME
[2] = Solubility in PBS at pH 7.4; type: physicochemical; settings: aqueous buffer
purified recombinant ILK = purified recombinant ILK (Homo sapiens (Human), UniProt Q13418); experiment: ILK binding affinity, EnSpire fluorescence intensity
[3] = Metabolic stability in mouse liver microsomes; type: in vitro ADME; settings: for Remaining Percentage (%): Mouse
MDA-MB-231 cells = experiment: Proliferation of triple negative breast cancer MDA-MB-231 cells; type: cell-based
Method: Cells were seeded at 20,000 cells/ml in 12 well plates in complete media. On day 3, the compounds were added at final 2 μM and the cells were counted every 3 days. […] Cells were seeded at 10,000 cells/ml in 12 well plates in complete media. The compounds were added at final 2 μM on day 2 and the cells were counted every 2 days.

CYP 2C19 = CYP 2C19 (Homo sapiens (Human), UniProt P33261); experiment: CYP inhibition in human liver microsomes, 2C19; type: in vitro ADME
EGFR = EGFR (Homo sapiens (Human), UniProt P00533); experiment: EGFR binding affinity, EnSpire fluorescence intensity; settings: same experimental conditions as ILK
CYP 2C9 = CYP 2C9 (Homo sapiens (Human), UniProt P11712); experiment: CYP inhibition in human liver microsomes, 2C9; type: in vitro ADME
[4] = Log D in 1-Octanol/PBS pH 7.4; type: physicochemical
[5] = Metabolic stability in rat liver microsomes; type: in vitro ADME; settings: for Remaining Percentage (%): Rat
HepG2 cells = experiment: Mitochondrial toxicity in HepG2 cells; type: cell-based; settings: for IC50: Homo sapiens, HepG2 cells
[6] = test system: human derived patient TNBC tumor (PDX); experiment: TNBC PDX mice; type: in vivo; settings: 200 mg/kg orally five times/week, in olive oil; day 27; listed as Csbl-1
Method: FIG. 8, panels A-C, show the effect of Csbl-1 on TNBC PDX mice. Csbl-1 was dissolved in olive oil. Five mice with TNBC were treated orally with Csbl-1 at 200 mg/kg five times/week vs 4 control mice without the treatment.
The next step was to evaluate the effect of Csbl-1 in mice bearing TNBC tumors. Given the fact that higher ILK expression level is correlated with poor outcome and reduced survival for TNBC patients (FIG. 6) and the above TNBC cell-based data, we decided to test whether Csbl-1 would be effective in suppressing the TNBC tumors in mice. […] Xenograft TNBC tumors were generated using MDA-MB231 on 8 mice. […] when the tumors were ˜3 mm, 4 mice were fed with Csbl-1 at 100 mg/kg five times/week and the other 4 mice (control, no drug) had no Csbl-1 treatment. […] We also examined the Csbl-1 effect on the mouse models with human derived patient TNBC tumor (PDX).

Stability in rat plasma = type: in vitro ADME
[7] = Protein binding in human plasma; type: in vitro ADME
[8] = Metabolic stability in human liver microsomes; type: in vitro ADME; settings: for Remaining Percentage (%): Human
[9] = Protein binding in mouse plasma; type: in vitro ADME
kinases = experiment: proteomic off target analysis vs known kinase inhibitors; settings: FIG. 3, against FDA-approved kinase inhibitors
Source text: Higher selectivity score means stronger off target effects.
To elucidate definitively how Csbl-1 specifically binds to ILK, we determined the crystal structure of Csbl-1/ILK complex. […] Thus our structure provides a hypothetical atomic basis for understanding why Csbl-1 binds selectively to ILK but unfavorably to EGFR (Table 1).

CYP 2C8 = CYP 2C8 (Homo sapiens (Human), UniProt P10632); experiment: CYP inhibition in human liver microsomes, 2C8; type: in vitro ADME
[10] = Protein binding in rat plasma; type: in vitro ADME

Sequence of purified recombinant ILK (Q13418 whole entry): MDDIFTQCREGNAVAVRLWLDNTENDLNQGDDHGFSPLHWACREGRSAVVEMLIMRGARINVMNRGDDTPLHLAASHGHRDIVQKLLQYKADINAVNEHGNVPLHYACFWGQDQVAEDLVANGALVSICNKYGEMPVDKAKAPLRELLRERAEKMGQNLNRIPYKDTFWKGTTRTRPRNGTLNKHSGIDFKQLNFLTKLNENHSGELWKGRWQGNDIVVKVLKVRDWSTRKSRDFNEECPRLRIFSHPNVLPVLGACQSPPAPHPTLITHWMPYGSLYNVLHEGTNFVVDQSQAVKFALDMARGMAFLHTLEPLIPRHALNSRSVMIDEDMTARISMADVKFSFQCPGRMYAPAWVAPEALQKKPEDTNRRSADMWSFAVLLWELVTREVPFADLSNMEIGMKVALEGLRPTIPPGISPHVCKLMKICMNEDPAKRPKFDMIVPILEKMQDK
Sequence of purified EGFR (P00533 25-1210): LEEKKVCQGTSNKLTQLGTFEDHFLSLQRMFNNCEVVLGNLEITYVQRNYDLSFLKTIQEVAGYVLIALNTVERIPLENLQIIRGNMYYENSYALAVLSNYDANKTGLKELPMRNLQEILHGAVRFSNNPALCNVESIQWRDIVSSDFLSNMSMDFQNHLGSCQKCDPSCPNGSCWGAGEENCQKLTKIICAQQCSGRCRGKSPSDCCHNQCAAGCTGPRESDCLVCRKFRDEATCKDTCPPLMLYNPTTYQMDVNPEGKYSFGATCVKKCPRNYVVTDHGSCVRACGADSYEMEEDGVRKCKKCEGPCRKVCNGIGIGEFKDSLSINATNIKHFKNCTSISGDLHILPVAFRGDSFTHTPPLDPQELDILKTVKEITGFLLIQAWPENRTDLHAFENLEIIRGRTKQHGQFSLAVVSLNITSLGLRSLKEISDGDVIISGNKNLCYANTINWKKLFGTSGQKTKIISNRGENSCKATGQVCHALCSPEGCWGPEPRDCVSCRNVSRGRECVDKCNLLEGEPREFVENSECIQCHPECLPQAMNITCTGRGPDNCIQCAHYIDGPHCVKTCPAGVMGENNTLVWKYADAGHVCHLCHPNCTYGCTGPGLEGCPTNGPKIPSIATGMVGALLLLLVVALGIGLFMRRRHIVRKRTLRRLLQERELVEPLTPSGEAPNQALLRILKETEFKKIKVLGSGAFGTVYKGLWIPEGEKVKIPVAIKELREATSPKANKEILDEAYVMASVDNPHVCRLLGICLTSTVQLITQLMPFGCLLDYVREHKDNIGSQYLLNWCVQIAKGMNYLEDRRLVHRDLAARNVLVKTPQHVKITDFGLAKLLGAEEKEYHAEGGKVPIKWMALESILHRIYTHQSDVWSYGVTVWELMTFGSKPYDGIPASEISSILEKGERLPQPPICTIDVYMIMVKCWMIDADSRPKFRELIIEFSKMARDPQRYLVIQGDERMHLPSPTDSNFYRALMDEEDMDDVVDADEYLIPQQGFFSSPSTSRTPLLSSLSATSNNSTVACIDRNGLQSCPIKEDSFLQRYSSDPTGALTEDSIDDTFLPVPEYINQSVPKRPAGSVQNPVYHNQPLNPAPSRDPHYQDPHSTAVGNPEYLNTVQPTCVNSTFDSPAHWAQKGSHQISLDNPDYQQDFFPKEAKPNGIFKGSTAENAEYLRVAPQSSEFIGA
Sequence of EGFR (P00533 25-1210): as above
Sequence of CYP 2C9 (P11712 whole entry): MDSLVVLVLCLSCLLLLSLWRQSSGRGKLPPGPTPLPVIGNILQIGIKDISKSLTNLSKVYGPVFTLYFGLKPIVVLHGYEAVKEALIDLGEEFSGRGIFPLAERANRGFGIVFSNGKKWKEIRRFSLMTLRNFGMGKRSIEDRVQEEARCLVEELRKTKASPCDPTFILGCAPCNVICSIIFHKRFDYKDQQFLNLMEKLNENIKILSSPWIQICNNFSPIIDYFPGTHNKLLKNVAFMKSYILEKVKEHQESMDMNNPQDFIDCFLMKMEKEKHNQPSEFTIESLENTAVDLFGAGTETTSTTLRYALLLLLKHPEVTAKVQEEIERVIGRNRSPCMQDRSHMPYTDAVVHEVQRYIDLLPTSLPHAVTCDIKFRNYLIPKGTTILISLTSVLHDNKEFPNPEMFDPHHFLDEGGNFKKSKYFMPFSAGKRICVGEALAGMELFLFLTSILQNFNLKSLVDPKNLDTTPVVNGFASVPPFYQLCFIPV
Sequence of CYP 3A4-M (P08684 whole entry): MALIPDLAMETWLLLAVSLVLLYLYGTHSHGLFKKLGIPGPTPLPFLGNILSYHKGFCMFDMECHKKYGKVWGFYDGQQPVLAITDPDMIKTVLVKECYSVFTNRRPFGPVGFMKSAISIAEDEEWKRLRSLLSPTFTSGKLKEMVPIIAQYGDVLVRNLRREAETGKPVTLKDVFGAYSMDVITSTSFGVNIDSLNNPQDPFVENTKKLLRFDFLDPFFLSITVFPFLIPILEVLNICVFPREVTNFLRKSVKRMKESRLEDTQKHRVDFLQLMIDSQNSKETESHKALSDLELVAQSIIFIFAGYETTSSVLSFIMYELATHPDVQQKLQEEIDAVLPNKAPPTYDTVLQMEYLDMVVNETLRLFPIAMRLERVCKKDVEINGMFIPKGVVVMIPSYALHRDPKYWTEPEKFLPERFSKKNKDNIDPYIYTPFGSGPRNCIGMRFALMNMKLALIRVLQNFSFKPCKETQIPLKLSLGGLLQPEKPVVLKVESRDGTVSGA
Sequence of CYP 2C8 (P10632 whole entry): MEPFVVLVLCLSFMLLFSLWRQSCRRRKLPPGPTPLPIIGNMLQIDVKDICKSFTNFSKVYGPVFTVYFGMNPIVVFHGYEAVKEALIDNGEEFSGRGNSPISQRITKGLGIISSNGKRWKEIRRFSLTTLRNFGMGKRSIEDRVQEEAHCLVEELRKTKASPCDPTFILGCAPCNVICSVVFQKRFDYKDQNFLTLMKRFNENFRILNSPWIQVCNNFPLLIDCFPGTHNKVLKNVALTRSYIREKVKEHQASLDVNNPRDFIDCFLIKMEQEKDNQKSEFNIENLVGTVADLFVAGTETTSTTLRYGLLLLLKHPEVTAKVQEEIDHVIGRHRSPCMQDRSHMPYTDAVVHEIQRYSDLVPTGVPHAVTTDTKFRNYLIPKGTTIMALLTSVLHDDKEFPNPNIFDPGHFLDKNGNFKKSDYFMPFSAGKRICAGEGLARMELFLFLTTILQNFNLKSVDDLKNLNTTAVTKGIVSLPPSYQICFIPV
Sequence of CYP 2C19 (P33261 whole entry): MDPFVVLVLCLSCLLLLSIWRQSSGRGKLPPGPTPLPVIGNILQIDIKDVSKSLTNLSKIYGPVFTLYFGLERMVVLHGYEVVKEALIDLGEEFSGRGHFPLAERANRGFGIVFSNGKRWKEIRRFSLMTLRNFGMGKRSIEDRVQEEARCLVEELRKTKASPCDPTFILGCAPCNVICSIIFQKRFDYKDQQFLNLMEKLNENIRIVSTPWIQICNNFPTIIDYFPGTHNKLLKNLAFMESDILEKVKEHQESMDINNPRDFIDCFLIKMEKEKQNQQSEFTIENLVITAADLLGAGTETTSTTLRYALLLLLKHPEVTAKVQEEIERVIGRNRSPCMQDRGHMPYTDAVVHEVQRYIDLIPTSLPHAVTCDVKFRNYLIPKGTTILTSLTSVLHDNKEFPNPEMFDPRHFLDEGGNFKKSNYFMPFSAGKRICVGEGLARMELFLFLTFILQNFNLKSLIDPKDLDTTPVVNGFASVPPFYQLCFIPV

Compound: C#Cc1cc(Nc2ncnc3cc(OCCOC)ccc23)cc(OCCOCC)c1 [Compound 1]
- IC50 (purified EGFR): 77.2 µM
- toxic symptoms in normal mice [1]: no toxic symptoms
- Remaining Percentage (%) (Stability in SIF; 0 min): 100.00%
- Remaining Percentage (%) (Stability in SIF; 30 min): 104.86%
- Remaining Percentage (%) (Stability in SIF; 60 min): 109.34%
- Remaining Percentage (%) (Stability in SIF; 120 min): 105.85%
- Remaining Percentage (%) (Stability in SIF; 180 min): 108.93%
- Remaining Percentage (%) (Stability in SIF; 240 min): 109.26%
- IC50 (CYP 3A4-M): 43.8 µM
- solubility [2]: 7.96 µM (≈ 3.24 µg/mL)
- Binding Difference ILK (Kd)/EGFR (Kd) (purified recombinant ILK; EnSpire fluorescence intensity): 0.1565
- Kd (purified recombinant ILK; EnSpire fluorescence intensity, read-out: ILK - Binding affinity): 2.77 µM
- Kd (purified recombinant ILK; fluorescence-based binding assay, purified ILK, read-out: KD to ILK): ~2.77 µM
- half-life ([3]; Mouse liver microsomes): 35.4 min
- microsomal CLint ([3]; Mouse liver microsomes, read-out: CLint (μL/min/mg protein)): 39.2 µL/min/mg
- CLint scaled ([3]; Mouse liver microsomes, read-out: Scaled-up CLint): 172 mL/min/kg
- Remaining Percentage (%) ([3]; With NADPH, 0 min): 100.00%
- Remaining Percentage (%) ([3]; With NADPH, 15 min): 72.40%
- Remaining Percentage (%) ([3]; With NADPH, 30 min): 51.67%
- Remaining Percentage (%) ([3]; With NADPH, 45 min): 37.39%
- Remaining Percentage (%) ([3]; With NADPH, 60 min): 32.04%
- Remaining Percentage (%) ([3]; Without NADPH, 0 min): 100.00%
- Remaining Percentage (%) ([3]; Without NADPH, 15 min): 93.90%
- Remaining Percentage (%) ([3]; Without NADPH, 30 min): 93.90%
- Remaining Percentage (%) ([3]; Without NADPH, 45 min): 91.46%
- Remaining Percentage (%) ([3]; Without NADPH, 60 min): 94.51%
- IC50 (MDA-MB-231 cells; Homo sapiens, MDA-MB-231, read-out: IC50 on MDA-MB-231): ~0.19 µM
- effect on proliferation of MDA-MB-231 cells (MDA-MB-231 cells; compounds at final 2 μM, FIG. 5 panel B): substantially inhibited the proliferation
- IC50 (CYP 2C19): 10.8 µM
- KD to EGFR (EGFR): too weak to be accurately determined
- IC50 (CYP 2C9): 13.8 µM
- logD [4]: 3.61
- half-life ([5]; Rat liver microsomes): 16 min
- microsomal CLint ([5]; Rat liver microsomes, read-out: CLint (μL/min/mg protein)): 86.6 µL/min/mg
- CLint scaled ([5]; Rat liver microsomes, read-out: Scaled-up CLint): 155 mL/min/kg
- Remaining Percentage (%) ([5]; With NADPH, 0 min): 100.00%
- Remaining Percentage (%) ([5]; With NADPH, 15 min): 45.00%
- Remaining Percentage (%) ([5]; With NADPH, 30 min): 21.08%
- Remaining Percentage (%) ([5]; With NADPH, 45 min): 11.69%
- Remaining Percentage (%) ([5]; With NADPH, 60 min): 7.65%
- Remaining Percentage (%) ([5]; Without NADPH, 0 min): 100.00%
- Remaining Percentage (%) ([5]; Without NADPH, 15 min): 95.03%
- Remaining Percentage (%) ([5]; Without NADPH, 30 min): 90.68%
- Remaining Percentage (%) ([5]; Without NADPH, 45 min): 91.30%
- Remaining Percentage (%) ([5]; Without NADPH, 60 min): 102.48%
- IC50 (HepG2 cells; Galactose, read-out: IC50 (μM)_Galactose): > 150 µM
- IC50 (HepG2 cells; Glucose, read-out: IC50 (μM)_Glucose): > 150 µM
- Compound precipitation (HepG2 cells; at 50 and 150 μM in mitochondrial toxicity assay): * Compound precipitation observed for Compound 1 at 50 and 150 μM.
- TNBC tumor growth in PDX mice [6]: effectively inhibited TNBC tumor growth; also recorded: significantly reduced
- Remaining Percentage (%) (Stability in rat plasma; 0 min): 100.00%
- Remaining Percentage (%) (Stability in rat plasma; 15 min): 92.93%
- Remaining Percentage (%) (Stability in rat plasma; 30 min): 94.35%
- Remaining Percentage (%) (Stability in rat plasma; 45 min): 93.29%
- Remaining Percentage (%) (Stability in rat plasma; 60 min): 94.70%
- Remaining Percentage (%) (Stability in rat plasma; 120 min): 91.52%
- recovery [7]: 98.8%
- fraction unbound ([7]; read-out: % Bound (converted)): 0.0303
- half-life ([8]; Human Liver Microsomes): 34.8 min
- microsomal CLint ([8]; Human Liver Microsomes, read-out: CLint (μL/min/mg protein)): 39.8 µL/min/mg
- CLint scaled ([8]; Human Liver Microsomes, read-out: Scaled-up CLint): 49.9 mL/min/kg
- Remaining Percentage (%) ([8]; With NADPH, 0 min): 100.00%
- Remaining Percentage (%) ([8]; With NADPH, 15 min): 70.61%
- Remaining Percentage (%) ([8]; With NADPH, 30 min): 51.77%
- Remaining Percentage (%) ([8]; With NADPH, 45 min): 38.83%
- Remaining Percentage (%) ([8]; With NADPH, 60 min): 30.40%
- Remaining Percentage (%) ([8]; Without NADPH, 0 min): 100.00%
- Remaining Percentage (%) ([8]; Without NADPH, 15 min): 98.20%
- Remaining Percentage (%) ([8]; Without NADPH, 30 min): 92.81%
- Remaining Percentage (%) ([8]; Without NADPH, 45 min): 89.22%
- Remaining Percentage (%) ([8]; Without NADPH, 60 min): 103.59%
- recovery [9]: 110%
- fraction unbound ([9]; read-out: % Bound): 0.01
- off-target effect to kinases (kinases): minimal off-target effect
- IC50 (CYP 2C8): 3.24 µM
- recovery [10]: 93.4%
- fraction unbound ([10]; read-out: % Bound (converted)): 0.0083

From patent US11524945B2, “Compounds for treating ILK-mediated diseases” (The Cleveland Clinic Foundation, priority 2018, dated 2022)
